Organism: Rattus norvegicus
Experiment: Open TG-GATES - Regimen: Single
Type: toxicity, organism-based, Sprague-Dawley
Design: regimen Single, gender Male, age 6 weeks
Conditions: in vivo, po, 300 mg/kg, route gavage, dose level Middle; for APTT / Bas / Eos / Fbg / Hb / Ht / Lym / MCH / MCHC / MCV / Mono / Neu / PT / Plat / RBC / Ret / WBC: tissue Blood; for KIDNEY_L / KIDNEY_R / KIDNEY_TOTAL: tissue Kidney; for LIVER: tissue Liver; for A/G / ALP / ALT / AST / BUN / CRE / Ca / Cl / DBIL / GLC / IP / K / LDH / Na / PL / RALB / TBIL / TC / TG / TP / gamma-GTP: tissue Plasma

`CC(=O)Nc1ccc2c(c1)Cc1ccccc1-2` [2-ACETYLAMINOFLUORENE] gave a TERMINAL_BW (9 h) of 215.7 g, an APTT (9 h) of 18.1 s and a Bas (9 h) of 0.2%. The Eos (9 h) was 0.6%, the Fbg (9 h) was 233.8 mg/dL and the Hb (9 h) was 13.9 g/dL. For the same molecule, the Ht (9 h) was 40.7%, the Lym (9 h) was 74% and the MCH (9 h) was 21.4 pg. The MCHC (9 h) was 34.2%, the MCV (9 h) was 62.5 fL and the Mono (9 h) was 2.8%. It also gave a Neu (9 h) of 21.8%, a PT (9 h) of 13 s and a Plat (9 h) of 136.5 x10_4/uL. For the same molecule, the RBC (9 h) was 652 x10_4/ul, the Ret (9 h) was 7.4% and the WBC (9 h) was 80.9 x10_2/uL. It also gave a KIDNEY_L (9 h) of 1 g, a KIDNEY_R (9 h) of 1 g and a KIDNEY_TOTAL (9 h) of 1.9 g. It also gave an LIVER (9 h) of 9.7 g, an A/G (9 h) of 1.6 and an ALP (9 h) of 756.6 IU/L. The ALT (9 h) was 31.4 IU/L, the AST (9 h) was 68 IU/L and the BUN (9 h) was 10.4 mg/dL. It also gave a CRE (9 h) of 0.4 mg/dL, a Ca (9 h) of 10.5 mg/dL and a Cl (9 h) of 103.4 meq/L. For the same molecule, the DBIL (9 h) was 0.06 mg/dL, the GLC (9 h) was 206.4 mg/dL and the IP (9 h) was 8.9 mg/dL. For the same molecule, the K (9 h) was 4 meq/L, the LDH (9 h) was 184.6 IU/L and the Na (9 h) was 140.2 meq/L. The PL (9 h) was 125 mg/dL, the RALB (9 h) was 3.5 g/dL and the TBIL (9 h) was 0.1 mg/dL. It also gave a TC (9 h) of 72.2 mg/dL, a TG (9 h) of 32.2 mg/dL and a TP (9 h) of 5.7 g/dL. For the same molecule, the gamma-GTP (9 h) was 1.2 IU/L, the TERMINAL_BW (24 h) was 220.9 g and the APTT (24 h) was 19.1 s. It also gave a Bas (24 h) of 0.6%, an Eos (24 h) of 1% and a Fbg (24 h) of 210.8 mg/dL. It also gave a Hb (24 h) of 14.5 g/dL, a Ht (24 h) of 41.9% and a Lym (24 h) of 75.2%. It also gave an MCH (24 h) of 22.2 pg, an MCHC (24 h) of 34.8% and an MCV (24 h) of 63.7 fL. It also gave a Mono (24 h) of 3.2%, a Neu (24 h) of 19.8% and a PT (24 h) of 14.4 s. For the same molecule, the Plat (24 h) was 131.6 x10_4/uL, the RBC (24 h) was 657.8 x10_4/ul and the Ret (24 h) was 5.9%. It also gave a WBC (24 h) of 77.9 x10_2/uL, a KIDNEY_L (24 h) of 1 g and a KIDNEY_R (24 h) of 1 g. It also gave a KIDNEY_TOTAL (24 h) of 2 g, an LIVER (24 h) of 11 g and an A/G (24 h) of 1.7. For the same molecule, the ALP (24 h) was 865 IU/L, the ALT (24 h) was 35.4 IU/L and the AST (24 h) was 74 IU/L. The BUN (24 h) was 15.6 mg/dL, the CRE (24 h) was 0.4 mg/dL and the Ca (24 h) was 10.6 mg/dL. The Cl (24 h) was 105.2 meq/L, the DBIL (24 h) was 0.098 mg/dL and the GLC (24 h) was 196.6 mg/dL. The IP (24 h) was 9.1 mg/dL, the K (24 h) was 4.3 meq/L and the LDH (24 h) was 212.8 IU/L. It also gave a Na (24 h) of 140.6 meq/L, a PL (24 h) of 117 mg/dL and an RALB (24 h) of 3.3 g/dL. For the same molecule, the TBIL (24 h) was 0.2 mg/dL, the TC (24 h) was 52 mg/dL and the TG (24 h) was 75.8 mg/dL. It also gave a TP (24 h) of 5.2 g/dL and a gamma-GTP (24 h) of 1.2 IU/L.

Reference: ChEMBL document CHEMBL3885861, “Open TG-GATES”
